According to publication PMC7522982, “PKIS deep dive yields a chemical starting point for dark kinases and a cell active BRSK2 inhibitor” (Scientific Reports, 2020):

What was measured:
[1] = target: SGK1/SGK (Homo sapiens, UniProt O00141); test: DiscoverX scanMAX competition binding assay; design: purchased Eurofins DiscoverX (scanMAX) / Eurofins enzymatic assays
Excerpt: (§1) Based on its narrow profile when tested in the combined Nanosyn and TSA panels, GW296115 was included in the recently released Kinase Chemogenomic Set (KCGS)[15]. All of the data presented in the Introduction section was collected prior to the inclusion of GW296115 in KCGS and everything that follows has been subsequently generated. Since its inclusion in PKIS and more recently KCGS, we have carried out a broader round of screening at DiscoverX. This profiling data has not been previously released and is reported here for the first time. GW296115 was profiled against 403 wild type human kinases at 1 μM using the DiscoverX scanMAX screening platform, which employs an active site-directed competition binding assay to quantitatively measure interactions between test compounds and kinases, [16]. GW296115 inhibited 25 kinases > 90% at 1 μM, resulting in a selectivity index (S10) of 0.062 at 1 μM (Table S2, Fig. 1C)[17].
(§2) The scanMAX assays were performed at Eurofins DiscoverX Corporation as previously described.

[2] = target: STK33 (Homo sapiens, UniProt Q9BYT3); test: DiscoverX scanMAX competition binding assay; design: purchased Eurofins DiscoverX (scanMAX) / Eurofins enzymatic assays
Excerpt: as §1, §2

[3] = target: PLK4 (Homo sapiens, UniProt O00444); test: DiscoverX scanMAX competition binding assay; design: purchased Eurofins DiscoverX (scanMAX) / Eurofins enzymatic assays
Excerpt: as §1, §2

[4] = target: PDGFRA (Homo sapiens, UniProt P16234); test: DiscoverX scanMAX competition binding assay; design: purchased Eurofins DiscoverX (scanMAX) / Eurofins enzymatic assays
Excerpt: as §1, §2

[5] = target: T1, PIM3 (Homo sapiens, UniProt Q86V86); test: DiscoverX scanMAX competition binding assay; design: purchased Eurofins DiscoverX (scanMAX) / Eurofins enzymatic assays
Excerpt: as §1, §2

[6] = target: FLT3 (Homo sapiens, UniProt P36888); test: DiscoverX scanMAX competition binding assay; design: purchased Eurofins DiscoverX (scanMAX) / Eurofins enzymatic assays
Chain of FLT3 (P36888 27-993): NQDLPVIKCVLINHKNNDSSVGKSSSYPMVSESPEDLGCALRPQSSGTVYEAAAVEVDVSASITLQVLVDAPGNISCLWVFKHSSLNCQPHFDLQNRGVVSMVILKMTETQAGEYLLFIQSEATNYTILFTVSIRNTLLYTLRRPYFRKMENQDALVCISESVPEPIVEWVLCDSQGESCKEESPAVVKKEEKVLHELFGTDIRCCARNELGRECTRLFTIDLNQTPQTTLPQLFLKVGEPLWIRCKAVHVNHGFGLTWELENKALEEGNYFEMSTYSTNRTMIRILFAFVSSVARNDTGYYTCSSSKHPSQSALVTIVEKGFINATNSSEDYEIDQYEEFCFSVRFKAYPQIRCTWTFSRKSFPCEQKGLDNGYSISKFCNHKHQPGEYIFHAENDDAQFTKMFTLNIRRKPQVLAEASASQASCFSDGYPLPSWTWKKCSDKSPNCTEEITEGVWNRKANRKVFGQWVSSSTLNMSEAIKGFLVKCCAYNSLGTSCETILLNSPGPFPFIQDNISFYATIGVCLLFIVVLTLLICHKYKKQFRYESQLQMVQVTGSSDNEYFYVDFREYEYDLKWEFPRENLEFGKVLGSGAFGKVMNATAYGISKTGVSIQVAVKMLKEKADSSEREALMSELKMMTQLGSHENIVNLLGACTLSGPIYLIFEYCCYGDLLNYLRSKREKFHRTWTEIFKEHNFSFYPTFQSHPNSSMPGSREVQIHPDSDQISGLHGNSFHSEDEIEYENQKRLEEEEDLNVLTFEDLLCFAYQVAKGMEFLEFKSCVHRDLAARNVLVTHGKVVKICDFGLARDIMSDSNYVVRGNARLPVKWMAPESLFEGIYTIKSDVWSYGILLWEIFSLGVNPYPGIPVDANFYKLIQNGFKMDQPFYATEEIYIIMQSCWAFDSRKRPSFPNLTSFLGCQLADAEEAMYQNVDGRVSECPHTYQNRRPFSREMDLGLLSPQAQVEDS
Excerpt: as §1, §2

[7] = target: MAP4K4/HGK (Homo sapiens, UniProt O95819); test: DiscoverX scanMAX competition binding assay; design: purchased Eurofins DiscoverX (scanMAX) / Eurofins enzymatic assays
Excerpt: as §1, §2

[8] = target: STK17A/DRAK1 (Homo sapiens, UniProt Q9UEE5); test: DiscoverX scanMAX competition binding assay; design: purchased Eurofins DiscoverX (scanMAX) / Eurofins enzymatic assays
Chain of STK17A/DRAK1 (Q9UEE5 whole entry): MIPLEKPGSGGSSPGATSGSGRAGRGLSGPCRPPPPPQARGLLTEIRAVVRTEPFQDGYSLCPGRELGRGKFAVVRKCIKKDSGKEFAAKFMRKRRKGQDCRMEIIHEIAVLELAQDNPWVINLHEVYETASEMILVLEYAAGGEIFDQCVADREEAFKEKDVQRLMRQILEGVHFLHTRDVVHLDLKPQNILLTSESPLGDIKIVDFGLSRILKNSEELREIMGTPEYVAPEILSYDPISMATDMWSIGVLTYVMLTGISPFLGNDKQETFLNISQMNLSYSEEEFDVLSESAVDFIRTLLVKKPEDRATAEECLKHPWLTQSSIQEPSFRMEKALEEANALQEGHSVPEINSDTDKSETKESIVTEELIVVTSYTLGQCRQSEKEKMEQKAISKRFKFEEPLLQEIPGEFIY
Excerpt: as §1, §2

[9] = target: AURKB (Homo sapiens, UniProt Q96GD4); test: DiscoverX scanMAX competition binding assay; design: purchased Eurofins DiscoverX (scanMAX) / Eurofins enzymatic assays
Chain of AURKB (Q96GD4 whole entry): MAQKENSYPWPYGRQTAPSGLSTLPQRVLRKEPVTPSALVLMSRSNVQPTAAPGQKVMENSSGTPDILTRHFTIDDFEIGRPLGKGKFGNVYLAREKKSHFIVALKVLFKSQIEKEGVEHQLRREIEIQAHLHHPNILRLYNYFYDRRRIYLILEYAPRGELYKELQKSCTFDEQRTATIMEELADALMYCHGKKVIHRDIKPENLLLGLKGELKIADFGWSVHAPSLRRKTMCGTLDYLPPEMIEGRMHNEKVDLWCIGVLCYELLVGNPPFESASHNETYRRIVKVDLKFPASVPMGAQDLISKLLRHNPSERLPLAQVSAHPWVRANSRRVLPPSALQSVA
Excerpt: as §1, §2

[10] = target: DAPK3/ZIPK (Homo sapiens, UniProt O43293); test: DiscoverX scanMAX competition binding assay; design: purchased Eurofins DiscoverX (scanMAX) / Eurofins enzymatic assays
Excerpt: as §1, §2

[11] = target: PRKG2/PKG2 (Homo sapiens, UniProt Q13237); test: DiscoverX scanMAX competition binding assay; design: purchased Eurofins DiscoverX (scanMAX) / Eurofins enzymatic assays
Chain of PRKG2/PKG2 (Q13237 whole entry): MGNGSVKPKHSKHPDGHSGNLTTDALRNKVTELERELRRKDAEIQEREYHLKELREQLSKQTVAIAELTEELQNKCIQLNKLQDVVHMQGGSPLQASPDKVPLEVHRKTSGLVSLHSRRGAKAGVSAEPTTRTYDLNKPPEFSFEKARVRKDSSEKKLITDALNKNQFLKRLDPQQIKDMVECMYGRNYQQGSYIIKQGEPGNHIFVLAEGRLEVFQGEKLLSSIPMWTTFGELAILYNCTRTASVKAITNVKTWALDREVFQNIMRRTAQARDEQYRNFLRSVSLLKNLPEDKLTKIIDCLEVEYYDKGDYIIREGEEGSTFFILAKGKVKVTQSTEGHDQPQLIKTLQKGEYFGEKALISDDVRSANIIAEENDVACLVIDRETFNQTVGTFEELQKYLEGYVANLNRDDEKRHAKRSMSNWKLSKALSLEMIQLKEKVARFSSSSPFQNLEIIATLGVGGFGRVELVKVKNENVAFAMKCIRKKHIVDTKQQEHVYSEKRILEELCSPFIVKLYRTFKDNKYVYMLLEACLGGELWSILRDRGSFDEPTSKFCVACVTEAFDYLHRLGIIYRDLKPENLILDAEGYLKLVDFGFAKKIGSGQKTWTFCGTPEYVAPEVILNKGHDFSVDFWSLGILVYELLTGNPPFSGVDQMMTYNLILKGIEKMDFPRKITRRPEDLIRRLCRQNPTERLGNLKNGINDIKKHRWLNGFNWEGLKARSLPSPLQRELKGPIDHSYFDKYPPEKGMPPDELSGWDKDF
Excerpt: as §1, §2

[12] = target: CHEK2 (Homo sapiens, UniProt O96017); test: DiscoverX scanMAX competition binding assay; design: purchased Eurofins DiscoverX (scanMAX) / Eurofins enzymatic assays
Excerpt: as §1, §2

[13] = target: T2, PIM2 (Homo sapiens, UniProt Q9P1W9); design: purchased Eurofins DiscoverX Corporation; method as in earlier work; settings: cited from earlier work
T2 sequence (Q9P1W9 whole entry): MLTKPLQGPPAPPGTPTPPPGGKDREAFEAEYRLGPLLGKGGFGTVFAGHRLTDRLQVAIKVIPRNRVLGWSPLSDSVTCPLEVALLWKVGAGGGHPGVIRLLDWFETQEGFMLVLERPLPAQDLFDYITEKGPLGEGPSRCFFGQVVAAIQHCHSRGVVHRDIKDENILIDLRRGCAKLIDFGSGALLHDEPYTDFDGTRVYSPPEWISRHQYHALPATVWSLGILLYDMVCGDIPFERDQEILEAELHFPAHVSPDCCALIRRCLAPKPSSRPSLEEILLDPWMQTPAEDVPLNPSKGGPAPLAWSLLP

[14] = target: T2, PIM2; design: purchased Eurofins; method as in earlier work; settings: cited from earlier work
[15] = test system: PDGFRα; design: method as in PMID 26501955; settings: cited from earlier work
[16] = target: T3, STK17B/DRAK2 (Homo sapiens, UniProt O94768); design: purchased Eurofins; method as in earlier work; settings: cited from earlier work
T3 sequence (O94768 1-372): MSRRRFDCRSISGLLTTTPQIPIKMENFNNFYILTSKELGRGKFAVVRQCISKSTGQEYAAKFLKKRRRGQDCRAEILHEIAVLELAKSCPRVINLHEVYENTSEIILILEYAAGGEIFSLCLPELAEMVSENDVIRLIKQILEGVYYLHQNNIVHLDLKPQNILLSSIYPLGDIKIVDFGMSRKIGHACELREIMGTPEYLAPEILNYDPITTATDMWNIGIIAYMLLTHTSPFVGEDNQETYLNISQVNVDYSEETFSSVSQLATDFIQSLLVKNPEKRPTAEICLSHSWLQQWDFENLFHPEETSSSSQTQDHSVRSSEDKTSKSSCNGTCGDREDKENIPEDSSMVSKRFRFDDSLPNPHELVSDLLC

[17] = target: T1, PIM3; design: purchased Eurofins DiscoverX (scanMAX) / Eurofins enzymatic assays; method as in earlier work; settings: cited from earlier work
[18] = target: T4, MAP2K5 (Homo sapiens, UniProt Q13163); test: DiscoverX scanMAX competition binding assay
T4 construct: purchased Eurofins DiscoverX (scanMAX) / Eurofins enzymatic assays
T4 sequence (Q13163 whole entry): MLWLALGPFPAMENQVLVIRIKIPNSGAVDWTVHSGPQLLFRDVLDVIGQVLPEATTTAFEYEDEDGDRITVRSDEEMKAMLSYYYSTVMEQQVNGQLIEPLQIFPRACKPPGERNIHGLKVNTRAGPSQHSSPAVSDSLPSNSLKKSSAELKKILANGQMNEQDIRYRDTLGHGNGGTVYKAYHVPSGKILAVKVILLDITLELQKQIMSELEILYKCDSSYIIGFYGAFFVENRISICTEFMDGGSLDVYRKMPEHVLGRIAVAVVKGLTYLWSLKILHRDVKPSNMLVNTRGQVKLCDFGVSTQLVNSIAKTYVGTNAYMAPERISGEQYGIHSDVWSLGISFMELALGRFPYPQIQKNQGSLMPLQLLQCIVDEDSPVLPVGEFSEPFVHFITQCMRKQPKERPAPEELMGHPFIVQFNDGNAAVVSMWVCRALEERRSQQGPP
Excerpt: as §1, §2

[19] = target: T5, MAP3K19 (Homo sapiens, UniProt Q56UN5); test: DiscoverX scanMAX competition binding assay
T5 construct: purchased Eurofins DiscoverX (scanMAX) / Eurofins enzymatic assays
T5 sequence (Q56UN5 whole entry): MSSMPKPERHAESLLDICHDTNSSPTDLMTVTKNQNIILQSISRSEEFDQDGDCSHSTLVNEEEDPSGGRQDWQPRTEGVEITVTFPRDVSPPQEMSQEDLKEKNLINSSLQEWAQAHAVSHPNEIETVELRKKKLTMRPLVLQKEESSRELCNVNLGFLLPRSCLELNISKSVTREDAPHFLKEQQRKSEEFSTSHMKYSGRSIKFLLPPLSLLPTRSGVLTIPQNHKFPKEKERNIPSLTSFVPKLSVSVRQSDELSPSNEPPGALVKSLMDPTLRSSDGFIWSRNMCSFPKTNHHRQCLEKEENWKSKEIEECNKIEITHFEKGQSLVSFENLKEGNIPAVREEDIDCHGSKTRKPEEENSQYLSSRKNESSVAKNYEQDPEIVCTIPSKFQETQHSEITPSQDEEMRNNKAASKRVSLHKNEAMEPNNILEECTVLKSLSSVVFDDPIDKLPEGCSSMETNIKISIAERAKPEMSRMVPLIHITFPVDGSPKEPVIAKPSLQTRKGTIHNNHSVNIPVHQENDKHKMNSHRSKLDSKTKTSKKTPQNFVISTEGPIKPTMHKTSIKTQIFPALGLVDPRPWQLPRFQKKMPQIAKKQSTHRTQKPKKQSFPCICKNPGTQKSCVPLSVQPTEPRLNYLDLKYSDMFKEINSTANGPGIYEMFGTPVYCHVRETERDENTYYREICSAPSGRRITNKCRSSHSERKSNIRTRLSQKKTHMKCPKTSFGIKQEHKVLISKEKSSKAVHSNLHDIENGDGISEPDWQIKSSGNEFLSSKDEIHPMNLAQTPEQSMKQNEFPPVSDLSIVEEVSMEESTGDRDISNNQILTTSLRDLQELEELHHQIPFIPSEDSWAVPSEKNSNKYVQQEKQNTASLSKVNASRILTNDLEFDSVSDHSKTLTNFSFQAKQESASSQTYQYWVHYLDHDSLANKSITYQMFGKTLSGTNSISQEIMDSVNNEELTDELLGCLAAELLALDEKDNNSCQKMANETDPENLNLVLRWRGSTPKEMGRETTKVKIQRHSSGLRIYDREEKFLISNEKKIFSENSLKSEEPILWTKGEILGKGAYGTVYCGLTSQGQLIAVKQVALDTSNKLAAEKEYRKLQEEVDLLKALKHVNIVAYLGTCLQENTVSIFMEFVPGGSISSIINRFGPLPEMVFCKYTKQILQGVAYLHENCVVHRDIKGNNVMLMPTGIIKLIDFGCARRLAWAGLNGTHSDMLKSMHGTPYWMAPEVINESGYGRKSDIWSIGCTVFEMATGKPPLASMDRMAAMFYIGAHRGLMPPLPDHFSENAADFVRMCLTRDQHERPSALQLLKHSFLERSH
Excerpt: as §1, §2

[20] = target: T6, MYLK3/caMLCK (Homo sapiens, UniProt Q32MK0); test: DiscoverX scanMAX competition binding assay
T6 construct: purchased Eurofins DiscoverX Corporation
Excerpt: as §1, §2

[21] = target: T7, EPHB6 (Homo sapiens, UniProt O15197); test: DiscoverX scanMAX competition binding assay
T7 construct: purchased Eurofins DiscoverX Corporation
Excerpt: as §1, §2

[22] = target: T8, RIOK3 (Homo sapiens, UniProt O14730); test: DiscoverX scanMAX competition binding assay
T8 construct: purchased Eurofins DiscoverX (scanMAX) / Eurofins enzymatic assays
Excerpt: as §1, §2

[23] = target: T9, GAK (Homo sapiens, UniProt O14976); test: DiscoverX scanMAX competition binding assay
T9 construct: purchased Eurofins DiscoverX (scanMAX) / Eurofins enzymatic assays
Excerpt: as §1, §2

COc1ccc2[nH]c3c4[nH]c5ccc(OC)cc5c4c4c(c3c2c1)C(=O)NC4=O [GW296115]
inhibition at 1 µM [1]: 91.2%
inhibition at 1 µM [2]: 92%
inhibition at 1 µM [3]: 99.5%
inhibition at 1 µM [4]: 91.4%
inhibition at 1 µM [5]: 94.4%
inhibition at 1 µM [6]: 91.5%
inhibition at 1 µM [7]: 91.4%
inhibition at 1 µM [8]: 99.6%
inhibition at 1 µM [9]: 90%
inhibition at 1 µM [10]: 96.9%
inhibition at 1 µM [11]: 98.8%
inhibition at 1 µM [12]: 92.5%
Nanosyn % Inhibition at 1 μM [13]: 68%
TSA ΔTm at 10 μM (°C) [14]: 9.8 °C
Nanosyn % Inhibition at 1 μM [15]: 84%
TSA ΔTm at 10 μM (°C) [16]: 18.3 °C
Nanosyn % Inhibition at 1 μM [17]: 83%
inhibition at 1 µM [18]: 99.5%
inhibition at 1 µM [19]: 100%
inhibition at 1 µM [20]: 80%
inhibition at 1 µM [21]: 85%
inhibition at 1 µM [22]: 89%
inhibition at 1 µM [23]: 96.7%
